Data: US5552422A, “Aryl substituted 5,5 fused aromatic nitrogen compounds as anti-inflammatory agents” (Merck Frosst Canada, Inc., priority 1995, dated 1996)

How the values were obtained:
[1] = tested on: rat paw edema; conditions: po, carrageenan paw edema, 3 hr
Procedure: Male Sprague-Dawley rats (150-200 g) were fasted overnight and were given po either vehicle (1% methocel or 5% Tween 80) or a test compound. One hr later, a line was drawn using a permanent marker at the level above the ankle in one hind paw to define the area of the paw to be monitored. The paw volume (V0) was measured using a plethysmometer (Ugo-Basile, Italy) based on the principle of water displacement. The animals were then injected subplantarly with 50 μl of 1% carrageenan solution in saline (FMC Corp, Maine) into the paw using an insulin syringe with a 25-gauge needle (i.e., 500 μg carrageenan per paw). Three hr later, the paw volume (V3) was measured and the increases in paw volume (V3 -V0) were calculated. The animals were sacrificed by CO2 aphyxiation and the absence or presence of stomach lesions scored. Data were compared with the vehicle-control values and percent inhibition calculated. […] All treatment groups were coded to eliminate observer bias.

[2] = target: T1, Cox-2 (Homo sapiens, UniProt P35354); test: Human whole blood assay, Cox-2 (LPS-induced PGE2 production); format: cell-based; conditions: PGE2 after LPS induction, 24 hours
T1 construct: incubation of human whole blood with LPS (lipopoly saccharide), which induces Cox-2; endogenous in cells
T1 sequence (P35354 18-604): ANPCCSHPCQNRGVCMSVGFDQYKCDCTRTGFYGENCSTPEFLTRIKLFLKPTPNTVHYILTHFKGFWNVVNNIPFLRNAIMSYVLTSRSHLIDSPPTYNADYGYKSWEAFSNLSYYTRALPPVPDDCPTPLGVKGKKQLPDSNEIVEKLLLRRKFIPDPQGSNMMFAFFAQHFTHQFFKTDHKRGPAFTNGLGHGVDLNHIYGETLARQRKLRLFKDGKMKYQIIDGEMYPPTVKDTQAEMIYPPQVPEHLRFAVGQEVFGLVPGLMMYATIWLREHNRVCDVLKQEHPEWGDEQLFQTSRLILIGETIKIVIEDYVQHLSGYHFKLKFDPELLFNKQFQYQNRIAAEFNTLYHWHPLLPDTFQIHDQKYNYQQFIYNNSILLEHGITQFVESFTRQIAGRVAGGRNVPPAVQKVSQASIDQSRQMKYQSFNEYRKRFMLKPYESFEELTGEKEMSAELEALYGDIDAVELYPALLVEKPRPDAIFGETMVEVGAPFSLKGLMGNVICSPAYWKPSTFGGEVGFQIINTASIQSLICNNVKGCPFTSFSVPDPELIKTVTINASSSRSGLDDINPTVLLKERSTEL
Procedure: (§1) Immediately following blood clotting, platelets are activated through a thrombin-mediated mechanism.
Fresh blood was collected in heparinized tubes by venipuncture from both male and female volunteers. The subjects had no apparent inflammatory conditions and had not taken any NSAIDs for at least 7 days prior to blood collection. Plasma was immediately obtained from a 2 mL blood aliquot to use as blank (basal levels of PGE2).
(§2) In the assay, inhibition is determined by measuring the amount of prostaglandin E2 (PGE2) synthesized in the presence of arachidonic acid, cyclooxygenase-1 or cyclooxygenase-2 and a putative inhibitor.

[3] = target: T2, Cox-1 (Homo sapiens, UniProt P23219); test: Human whole blood assay, Cox-1 (clotting-induced TxB2 production); format: cell-based; conditions: TxB2 following blood clotting
T2 construct: platelets in whole blood contain a large amount of the Cox-1 enzyme; endogenous in cells; host or cells: platelets in fresh human whole blood (clotting)
Procedure: as §1
Aliquots of 500 μL were immediately transferred to siliconized microcentrifuge tubes preloaded with 2 μL of either DMSO or a test compound at final concentrations varying from 10 nM to 30 μM. The tubes were vortexed and incubated at 37° C. for 1 hour to allow blood to clot.
as §2

T2 sequence (P23219 24-599): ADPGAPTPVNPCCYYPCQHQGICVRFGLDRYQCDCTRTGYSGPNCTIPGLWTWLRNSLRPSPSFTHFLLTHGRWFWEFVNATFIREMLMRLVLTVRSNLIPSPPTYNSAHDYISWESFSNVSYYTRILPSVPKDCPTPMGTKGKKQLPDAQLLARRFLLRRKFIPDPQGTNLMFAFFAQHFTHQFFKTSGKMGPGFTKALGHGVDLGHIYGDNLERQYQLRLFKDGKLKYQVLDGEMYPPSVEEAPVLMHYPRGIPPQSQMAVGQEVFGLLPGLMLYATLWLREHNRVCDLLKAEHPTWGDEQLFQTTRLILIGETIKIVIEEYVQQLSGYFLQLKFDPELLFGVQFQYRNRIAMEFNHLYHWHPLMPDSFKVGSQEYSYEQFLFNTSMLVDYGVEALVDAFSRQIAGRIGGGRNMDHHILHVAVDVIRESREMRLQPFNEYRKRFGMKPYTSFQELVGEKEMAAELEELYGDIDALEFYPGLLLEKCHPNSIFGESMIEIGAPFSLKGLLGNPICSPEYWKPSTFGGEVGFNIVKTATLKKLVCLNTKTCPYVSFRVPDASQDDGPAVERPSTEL

IC50 [2]	IC50 [3]	Structure (SMILES)	ED50 [1]
		COc1ccc2c(c1)c(CC(=O)O)c(C)n2C(=O)c1ccc(Cl)cc1 [Indomethacin, indomethacin]	2 mg/kg
0.33 µM	> 30 µM	CS(=O)(=O)c1ccc(-c2c(-c3ccccc3)nc3sccn23)cc1 [Example 1, 5-(4-(Methylsulfonyl)phenyl)-6-phenylimidazo[2,1-b]thiazole]	
